Assay results taken from US6469028B1, “Synthesis and use of retinoid compounds having negative hormone and/or anatgonist activities” (Allergan, Inc., priority 1995, dated 2002).

What was measured:
RXRα = biological target: T1, RXRα (Homo sapiens, UniProt P19793); assay: Holoreceptor transactivation assay; format: cell-based; conditions: relative to all trans retinoic acid; read-out: Transactivation Assay Efficacy (% of RA activity) RXRα
T1 construct: expressed in transfected cells; host or cells: CV1 cells
T1 sequence (P19793 1-462): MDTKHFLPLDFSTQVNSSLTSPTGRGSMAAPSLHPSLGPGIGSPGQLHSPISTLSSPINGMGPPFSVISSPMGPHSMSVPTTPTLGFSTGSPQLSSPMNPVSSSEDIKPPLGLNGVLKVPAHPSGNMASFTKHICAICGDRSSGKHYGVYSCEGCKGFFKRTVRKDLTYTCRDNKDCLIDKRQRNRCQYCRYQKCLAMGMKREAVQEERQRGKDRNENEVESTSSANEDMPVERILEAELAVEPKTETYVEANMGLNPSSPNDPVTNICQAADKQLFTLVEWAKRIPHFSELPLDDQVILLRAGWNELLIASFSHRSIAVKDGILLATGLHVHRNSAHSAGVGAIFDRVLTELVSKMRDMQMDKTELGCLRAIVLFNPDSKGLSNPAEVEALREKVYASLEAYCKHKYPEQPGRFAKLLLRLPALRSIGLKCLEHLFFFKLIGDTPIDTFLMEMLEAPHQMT

RXRγ = biological target: T2, RXRγ (Mus musculus, UniProt P28705); assay: Holoreceptor transactivation assay; format: cell-based; conditions: relative to all trans retinoic acid; read-out: Transactivation Assay Efficacy (% of RA activity) RXRγ
T2 construct: expressed in transfected cells; host or cells: CV1 cells
T2 sequence (P28705 1-463): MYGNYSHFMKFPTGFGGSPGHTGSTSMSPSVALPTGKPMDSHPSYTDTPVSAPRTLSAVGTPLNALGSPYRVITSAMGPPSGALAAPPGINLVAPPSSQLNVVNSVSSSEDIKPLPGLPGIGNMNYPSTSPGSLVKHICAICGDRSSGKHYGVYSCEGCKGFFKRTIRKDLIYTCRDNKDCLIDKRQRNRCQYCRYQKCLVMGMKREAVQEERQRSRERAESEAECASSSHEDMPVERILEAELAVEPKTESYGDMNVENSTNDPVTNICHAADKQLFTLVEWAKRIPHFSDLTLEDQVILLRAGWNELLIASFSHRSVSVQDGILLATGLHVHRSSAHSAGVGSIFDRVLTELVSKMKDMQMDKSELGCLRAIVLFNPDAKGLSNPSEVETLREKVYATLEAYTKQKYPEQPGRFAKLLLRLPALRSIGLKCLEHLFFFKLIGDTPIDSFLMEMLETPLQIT

**Q.** For Cc1ccc(C2=CCC(C)(C)c3cc(C(=O)C=Cc4ccc(C(=O)O)cc4)ccc32)cc1 [Compound 101, 4-[3-oxo-3-(7,8-dihydro-5-(4-methylphenyl)-8,8-dimethyl-2-naphthalenyl)-1-propenyl]-benzoic acid], which Emax (RXRα) is on record?
**A.** 1%

**Q.** And the Emax (RXRγ)?
**A.** 3%

**Q.** For CC1(C)CC=C(c2ccccc2)c2ccc(C(=O)C=Cc3ccc(C(=O)O)cc3)cc21 [Compound 103, 4-[3-oxo-3-(7,8-dihydro-5-phenyl-8,8-dimethyl-2-naphthalenyl)-1-propenyl]-benzoic acid], which Emax (RXRα) is on record?
**A.** 0%

**Q.** And the Emax (RXRγ)?
**A.** 2%
